Assays:
[1] = humans, ingested; cited from earlier work
[2] = system: bilateral knee osteoarthritis; experiment: Agmatine Administration Case 2: consecutive self-treatment with acetaminophen, GCM formulation and agmatine (VAS, WOMAC); type: in vivo, human; conditions: agmatine taken with acetaminophen and with acetaminophen/GCM formulation
From the text: In a second study, four participants had bilateral symptoms of mild-to-moderate chronic, frequent knee pain typical of knee osteoarthritis according to a WOMAC Index score range of >25 and <100. They are compared in Table 2. Participants began taking acetaminophen (as TYLENOL®) as needed over the course of the symptom duration: Referring to FIG. 1, the four participants self-treated consecutively as follows: starting with Acetaminophen (as TYLENOL®, considered a standard drug treatment) used as a rescue medication for the duration of their symptoms for 4 to 6 months, followed by a sixty-day treatment period with acetaminophen plus a GCM formulation (i.e., glucosamine HCl, chondroitin sulfate, and methylsulfonylmethane (MSM)). The GCM formulation was followed by sixty-day period using a combination comprising acetaminophen, the GCM formulation, and agmatine (taken as the G-AGMATINE® brand of agmatine sulfate). […] Referring to FIG. 3, changes in the WOMAC ratings are shown, expressed as a percentage of total scores, at the specified time intervals after initiation of each of the acetaminophen (labeled “acet in the figure), acetaminophen and GCM formulation, and the combination acetaminophen/GCM formulation/agmatine treatment regimens. […]

[3] = system: bilateral knee osteoarthritis; experiment: Agmatine Administration Case 1: self-treatment and self-rating of knee osteoarthritis symptoms (WOMAC Index, VAS); type: in vivo, human; conditions: for VAS Score / WOMAC (% Total Score): treatment duration 12-14 months
From the text: Two study participants, each suffering from bilateral knee osteoarthritis, were consecutively self-treated as shown in the following Table 1: Treatment started with acetaminophen (as TYLENOL®, considered standard drug treatment) used as a rescue medication for the duration of their symptoms, 12 or 14 months as needed, followed by a 12-week treatment period of acetaminophen plus agmatine (taken as the G-AGMATINE® brand of agmatine sulfate). The participants self-rated their OA symptoms according to the WOMAC (Western Ontario and McMaster Universities Osteoarthritis) Index and according to the Visual Analog (pain) Scale (VAS). They had bilateral symptoms of mild-to-moderate chronic, frequent knee pain typical of knee OA according to WOMAC, score range of >25 and <100. Table 1 presents a summary of the participants' characteristics and treatment assessment at the indicated follow-up times. For the entire acetaminophen-only treatment, the dosage was 500 milligrams per caplet, and the frequency was two caplets every six hours, as needed (i.e., 1000 mg per six-hour period). For the acetaminophen plus agmatine regimen, the participants' initial dosage of acetaminophen was 500 milligrams per caplet with an initial dosage of agmatine of 450 milligrams per capsule. While the frequency of acetaminophen dosage for both participants remained two caplets every six hours, the frequency of the agmatine capsules was six capsules daily (i.e., 2,700 mg per day). […] Participant 1 eliminated acetaminophen after six weeks, and participant 2 eliminated acetaminophen after eight weeks of treatment. Thereafter, the participants were taking only agmatine and reduced the quantity of agmatine by one third (i.e., a regimen of 1,800 mg per day).

Compound | apparent blood half-life [1] | Effect on improving OA symptoms (in words) [2] | Effect on OA symptoms (in words) ([3]; agmatine taken with acetaminophen, two participants) | VAS Score ([3]; Participant #1, acetaminophen as needed) | WOMAC (% Total Score) ([3]; Participant #1, acetaminophen as needed (entry two)) | WOMAC (% Total Score) ([3]; Participant #2 (person one), acetaminophen as needed) | VAS Score ([3]; Participant #2, acetaminophen as needed)
N=C(N)NCCCCN [Agmatine] | about two | unexpected synergistic effect | dramatic improvement in OA symptoms |  |  |  | 
CC(=O)Nc1ccc(O)cc1 [Acetaminophen] |  |  |  | 6.0 | 83.3 | 85.4 | 6.5
